This is an account of results in paper PMC9994683 (PLOS ONE, 2023).

The structures appear in SMILES notation.

Data set [1] concerns Pseudomonas aeruginosa (ATCC 10145). The data set is described as follows: Well-diffusion assay. Particulars: extracts 50 μg/mL, 50 μL per well, within 24 h. In kind it is cell-based. (In general: In agar diffusion tests the substance spreads into inoculated agar from a disc or well.)
Data set [2] deals with Staphylococcus aureus (ATCC 43300). Description: Well-diffusion assay. In kind it is cell-based. Particulars: extracts 50 μg/mL, 50 μL per well, within 24 h.
In data set [3] the test system is Pseudomonas aeruginosa (ATCC 10145). The data set is described as follows: Disc-diffusion assay. In kind it is cell-based.
Data set [4] relates to Enterococcus faecalis (ATCC 43845). Description: Disc-diffusion assay. The class given is cell-based.
In data set [5] the test system is Listeria monocytogenes (ATCC 35152). Description: Well-diffusion assay. In kind it is cell-based. Particulars: extracts 50 μg/mL, 50 μL per well, within 24 h.
In data set [6] the test system is Escherichia coli (ATCC 25922). Description: Disc-diffusion assay. The class given is cell-based.
The subject of data set [7] is Enterococcus faecalis (ATCC 43845). Description: Well-diffusion assay. The conditions noted are these: extracts 50 μg/mL, 50 μL per well, within 24 h. The class given is cell-based.
The subject of data set [8] is Escherichia coli (ATCC 25922). Description: Well-diffusion assay. In kind it is cell-based. Particulars: extracts 50 μg/mL, 50 μL per well, within 24 h.
The subject of data set [9] is Salmonella enterica (ATCC 14028). Description: Well-diffusion assay. The class given is cell-based. The conditions noted are these: extracts 50 μg/mL, 50 μL per well, within 24 h. The protocol:
(§1) The bactericidalpotential of 50μg/mL of A. indica L. and M. azedarach L. leaves extracts were evaluated using the disc and well-diffusion assays by the formation of inhibition zone. Then, the broth-microdilution approach was used to estimate the values of minimum inhibitory concentration (MIC).
(§2) The antibacterial actions of extracts were examined against Escherichia coli (ATCC 25922), Salmonella enterica (ATCC 14028), Pseudomonas aeruginosa (ATCC 10145), representing Gram-negative (GN) bacteria; Listeria monocytogenes (ATCC 35152), Staphylococcus aureus (ATCC 43300) and Enterococcus faecalis (ATCC 43845), representing Gram-positive (GP) bacteria. Each bacterial culture stock preserved in -80°C was injected into a tube containing 20 ml of Trypticase soya broth (TSB). Then, all inoculated tubes were incubated for 24 h at 37°C. Dilution of the cultures with Mueller–Hinton Broth (MHB) was performed corresponding to ten folds serial dilution upto 10^-8CFU/ml of the bacterial culture.
2.6.2.2. Well-diffusion method. Using sanitized needle tips, a 6 mm-diameter hole was drilled. Afterward when, a sterilized cotton swab was employed to smear the inoculum standard solution of the examined microbes onto the medium. The specimen was then transferred to each well in intervals of 50 μL. Two reference antibiotic drugs (vancomycin and ciprofloxacin) served as positive controls. […]

In data set [10] the test system is Staphylococcus aureus (ATCC 43300). The data set is described as follows: Disc-diffusion assay. In kind it is cell-based.
Data set [11] deals with Listeria monocytogenes (ATCC 35152). The data set is described as follows: Disc-diffusion assay. Particulars: ATCC35152, extracts 50 μg/mL, vancomycin 30 μg/disc, ciprofloxacin 5 μg/disc, read-out: zone of inhibition (diameter), Disc, L. mono. The class given is cell-based. The protocol: as §1, §2
(§3) 2.6.2.1. Disc-diffusion method. The technique was conducted based upon the Clinical and Laboratory Standards Institute (CLSI) (M02-A11). The prepared bacterial inoculum suspension was briefly swabbed onto MHA medium with a sterile cotton swab. Next, sterile discs made of filter paper (6 mm) (Maidstone, UK) were saturated with 50μg/mLof the tested samples. Both Ciprofloxacin (5μg/disc) and Vancomycin (30μg/disc) were used as controls. The saturated discs were lightly pushed on the top surfaces MHA and incubated with bacteria overnight at 37°C. A produced zone of inhibition (ZOI) was measured and given in millimeters (mm).

The test system of data set [12] is Salmonella enterica (ATCC 14028). Description: Disc-diffusion assay. In kind it is cell-based. Particulars: ATCC14028, extracts 50 μg/mL, vancomycin 30 μg/disc, ciprofloxacin 5 μg/disc, read-out: zone of inhibition (diameter), Disc, S. enterica. The protocol: as §1, §2, §3
The test system of another data set is Vero E6 cells. Description: MTT cytotoxicity assay (CC50) in Vero E6 cells. In kind it is cell-based, African green monkey. Particulars: reference drug control. (In general: Tetrazolium assays rely on reduction of a dye to a coloured formazan, in cell work by metabolically active cells.)
In data set [13] the test system is hCoV-19/Egypt/NRC-3/2020 SARS-CoV-2 virus. Description: Anti-SARS-CoV-2 activity (IC50), crystal violet assay in Vero-E6 cells. The class given is cell-based. Particulars: SARS-CoV-2 in Vero E6 cells, reference drug control.

For orientation: zone of inhibition means the size of the clear area around the sample on an inoculated plate. What is called CC50 is the concentration giving 50% cytotoxicity. One may read the IC50 as the concentration that gives 50% inhibition. A low value points to inhibition by little substance.

`O=C(O)c1cn(C2CC2)c2cc(N3CCNCC3)c(F)cc2c1=O` [Cipro., ciprofloxacin]: in data set [1], the “zone of inhibition (diameter), Well, P. aeruginosa” value was 11 ±0.31 mm. Moreover, in data set [2], the “zone of inhibition (diameter), Well, S. aureus” value was 10 ±0.29 mm. Moreover, the zone of inhibition at 5 µg/disc in [3] (ATCC10145, extracts 50 μg/mL, vancomycin 30 μg/disc, ciprofloxacin 5 μg/disc, read-out: zone of inhibition (diameter), Disc, P. aeruginosa) stood at 9 ± 0.15 mm; in [4] (ATCC43845, extracts 50 μg/mL, vancomycin 30 μg/disc, ciprofloxacin 5 μg/disc, read-out: zone of inhibition (diameter), Disc, E. faecalis) it was 9 ± 0.19 mm; in data set [6] (ATCC25922, extracts 50 μg/mL, vancomycin 30 μg/disc, ciprofloxacin 5 μg/disc, read-out: zone of inhibition (diameter), Disc, E. coli), 14 ± 0.28 mm; in data set [10] (ATCC43300, extracts 50 μg/mL, vancomycin 30 μg/disc, ciprofloxacin 5 μg/disc, read-out: zone of inhibition (diameter), Disc, S. aureus), 8 ± 0.24 mm; in [11], 6 ± 0.25 mm; in data set [12], 11 ± 0.15 mm. The “zone of inhibition (diameter), Well, L. mono.” value in data set [5] was found to be 8 ±0.18 mm. Moreover, the “zone of inhibition (diameter), Well, E. faecalis” value in data set [7] is on record as 10 ±0.15 mm. Further, the “zone of inhibition (diameter), Well, E. coli” value in data set [8] is recorded as 16 ±0.19 mm. Also, the “zone of inhibition (diameter), Well, S. enterica” value in data set [9] came to 12 ±0.31 mm.
Consider `CN[C@H](CC(C)C)C(=O)N[C@H]1C(=O)N[C@@H](CC(N)=O)C(=O)N[C@H]2C(=O)N[C@H]3C(=O)N[C@H](C(=O)N[C@H](C(=O)O)c4cc(O)cc(O)c4-c4cc3ccc4O)[C@H](O)c3ccc(c(Cl)c3)Oc3cc2cc(c3O[C@@H]2O[C@H](CO)[C@@H](O)[C@H](O)[C@H]2O[C@H]2C[C@](C)(N)[C@H](O)[C@H](C)O2)Oc2ccc(cc2Cl)[C@H]1O` [Vanco., vancomycin], for which the “zone of inhibition (diameter), Well, P. aeruginosa” value in data set [1] was 8 ±0.24 mm. The “zone of inhibition (diameter), Well, S. aureus” value in [2] came to 14 ±0.27 mm. In addition, the zone of inhibition at 30 µg/disc was 6 ± 0.21 mm in data set [3] (ATCC10145, read-out: zone of inhibition (diameter), Disc, P. aeruginosa); 11 ± 0.31 mm in data set [4] (ATCC43845, read-out: zone of inhibition (diameter), Disc, E. faecalis); 9 ± 0.11 mm in data set [6] (ATCC25922, read-out: zone of inhibition (diameter), Disc, E. coli); 12 ± 0.22 mm in data set [10] (ATCC43300, read-out: zone of inhibition (diameter), Disc, S. aureus); 9 ± 0.43 mm in data set [11]; 7 ± 0.21 mm in data set [12]. Besides, the “zone of inhibition (diameter), Well, L. mono.” value in data set [5] is recorded as 11 ±0.11 mm. Further, the “zone of inhibition (diameter), Well, E. faecalis” value in data set [7] was 13 ±0.23 mm. Also, the “zone of inhibition (diameter), Well, E. coli” value in [8] was 10 ±0.23 mm. In addition, in data set [9], the “zone of inhibition (diameter), Well, S. enterica” value is reported as 9 ±0.24 mm.
In the data set on Vero E6 cells, `CCC(CC)COC(=O)[C@H](C)N[P@](=O)(OC[C@H]1O[C@@](C#N)(c2ccc3c(N)ncnn23)[C@H](O)[C@@H]1O)Oc1ccccc1` [remedesivir] gave a CC50 of 473 µM. The IC50 in [13] was 6.72 µM.
